Measured values published in patent US10766869B2, “Triazoles for the treatment of demyelinating dieases” (Vertex Pharmaceuticals Incorporated, priority 2015, dated 2020).

Test system: primary rat mixed cortical cells
Experiment: In vitro myelination assay (MBP positive myelin strands, fold myelin pixels above background)
Type: cell-based
Conditions: Rattus norvegicus, relative to baseline of no added compound, read-out: Fold myelin pixels above background; for fold induction at 1 µM: 1.0 μM compound; for fold induction at 10 µM: 10.0 μM compound
Method in brief: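 P1 rat cortical cells (neurons, OPCs, oligodendrocytes, astrocytes, microglia) were cultured 14 days at 37 °C with compound, with half-medium changes containing 1× compound on days 6 and 10. Fixed cells were immunostained for MBP and imaged at 10×. Total MBP myelin pixels per well were expressed as fold above no-compound baseline at 1.0 μM and 10.0 μM.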

| SMILES | fold induction at 1 µM | fold induction at 10 µM |
| --- | --- | --- |
| FC(F)(F)c1cc(Nc2ncn(-c3ccccc3)n2)nc(N2CCN(C3COC3)CC2)c1 [Compound 547, 6-[4-(oxetan-3-yl)piperazin-1-yl]-N-(1-phenyl-1,2,4-triazol-3-yl)-4-(trifluoromethyl)pyridin-2-amine] | 100 to 1000 | 10 to 100 |
| FC(F)(F)c1cc(Nc2ncn(-c3ccccn3)n2)nc(N2CCN(C3COC3)CC2)c1 [Compound 548, 6-[4-(oxetan-3-yl)piperazin-1-yl]-N-[1-(2-pyridyl)-1,2,4-triazol-3-yl]-4-(trifluoromethyl)pyridin-2-amine] | 1 to 10 | 1 to 10 |
| CCc1cc(Nc2ncn(-c3cncnc3)n2)cc(N2CCN(C3COC3)CC2)c1 [Compound 549, N-[3-ethyl-5-[4-(oxetan-3-yl)piperazin-1-yl]phenyl]-1-pyrimidin-5-yl-1,2,4-triazol-3-amine] | 1 to 10 | 10 to 100 |
| CC(C)(C)c1cc(Nc2ncn(-c3cncnc3)n2)cc(N2CCN(C3COC3)CC2)c1 [Compound 550, N-[3-tert-butyl-5-[4-(oxetan-3-yl)piperazin-1-yl]phenyl]-1-pyrimidin-5-yl-1,2,4-triazol-3-amine] | 10 to 100 | 10 to 100 |
| Cc1cc(Nc2ncn(-c3cc(F)cc(F)c3)n2)cc(N2CC(C)(O)C2)c1 [Compound 551, 1-[3-[[1-(3,5-difluorophenyl)-1,2,4-triazol-3-yl]amino]-5-methyl-phenyl]-3-methyl-azetidin-3-ol] | 100 to 1000 | 10 to 100 |
| Cc1cc(Nc2ncn(-c3cc(F)cc(F)c3)n2)cc(N2CCNC(C(F)(F)F)C2)c1 (stereo not drawn) [Compound 552, 1-(3,5-difluorophenyl)-N-[3-methyl-5-[3-(trifluoromethyl)piperazin-1-yl]phenyl]-1,2,4-triazol-3-amine] | 10 to 100 | 10 to 100 |
| CCC1(O)CN(c2cc(C)cc(Nc3ncn(-c4cc(F)cc(F)c4)n3)c2)C1 [Compound 553, 1-[3-[[1-(3,5-difluorophenyl)-1,2,4-triazol-3-yl]amino]-5-methyl-phenyl]-3-ethyl-azetidin-3-ol] | 100 to 1000 | 10 to 100 |
| CCNC(=O)N1CCN(c2cc(C(F)(F)F)cc(Nc3ncn(-c4cc(F)cc(F)c4)n3)n2)CC1 [Compound 554, 4-[6-[[1-(3,5-difluorophenyl)-1,2,4-triazol-3-yl]amino]-4-(trifluoromethyl)-2-pyridyl]-N-ethyl-piperazine-1-carboxamide] | 10 to 100 | 10 to 100 |
| CC(=O)N1CCN(c2cc(C(F)(F)F)cc(Nc3ncn(-c4cc(F)cc(F)c4)n3)n2)CC1 [Compound 555, 1-[4-[6-[[1-(3,5-difluorophenyl)-1,2,4-triazol-3-yl]amino]-4-(trifluoromethyl)-2-pyridyl]piperazin-1-yl]ethanone] | 10 to 100 | 100 to 1000 |
| Fc1cc(F)cc(-n2cnc(Nc3cc(C(F)(F)F)cc(N4CCNCC4)n3)n2)c1 [Compound 556, N-[1-(3,5-difluorophenyl)-1,2,4-triazol-3-yl]-6-piperazin-1-yl-4-(trifluoromethyl)pyridin-2-amine] | 1 to 10 | 1 to 10 |
| CC(C)(C)OC(=O)N1CCN(c2cc(C(F)(F)F)cc(Nc3ncn(-c4cc(F)cc(F)c4)n3)n2)CC1 [Compound 557, tert-butyl 4-[6-[[1-(3,5-difluorophenyl)-1,2,4-triazol-3-yl]amino]-4-(trifluoromethyl)-2-pyridyl]piperazine-1-carboxylate] | ≤ 1 | ≤ 1 |
| Cc1cc(Nc2ncn(-c3cc(F)ccc3F)n2)cc(N2CCNCC2)c1 [Compound 558, 1-(2,5-difluorophenyl)-N-(3-methyl-5-piperazin-1-yl-phenyl)-1,2,4-triazol-3-amine] | 10 to 100 | ≤ 1 |
| CCCc1cc(Nc2ncn(-c3ccc(F)c(F)c3)n2)cc(N2CCN(C3COC3)CC2)c1 [Compound 559, 1-(3,4-difluorophenyl)-N-[3-[4-(oxetan-3-yl)piperazin-1-yl]-5-propyl-phenyl]-1,2,4-triazol-3-amine] | 100 to 1000 | 10 to 100 |
| Cc1cc(Nc2ncn(-c3cc(F)cc(F)c3)n2)nc(N2CCOCC2)c1 [Compound 560, N-[1-(3,5-difluorophenyl)-1,2,4-triazol-3-yl]-4-methyl-6-morpholino-pyridin-2-amine] | 10 to 100 | 100 to 1000 |
| Cc1cc(Nc2ncn(-c3cc(F)cc(F)c3)n2)cc(N2CCN3C(=O)CCC3C2)c1 (stereo not drawn) [Compound 561, 2-[3-[[1-(3,5-difluorophenyl)-1,2,4-triazol-3-yl]amino]-5-methyl-phenyl]-1,3,4,7,8,8a-hexahydropyrrolo[1,2-a]pyrazin-6-one] | 100 to 1000 | 10 to 100 |
| Cc1cc(Nc2ncn(-c3cc(F)cc(F)c3)n2)nc(N2CCN(C3CCOC3)CC2)c1 (stereo not drawn) [Compound 562, N-[1-(3,5-difluorophenyl)-1,2,4-triazol-3-yl]-4-methyl-6-(4-tetrahydrofuran-3-ylpiperazin-1-yl)pyridin-2-amine] | 1 to 10 | 1 to 10 |
| Cc1cc(Nc2ncn(-c3cc(F)cc(F)c3)n2)nc(N2CC(C3COC3)C2)c1 [Compound 563, N-[1-(3,5-difluorophenyl)-1,2,4-triazol-3-yl]-4-methyl-6-[3-(oxetan-3-yl)azetidin-1-yl]pyridin-2-amine] | ≤ 1 | 1 to 10 |
| Fc1cc(F)cc(-n2cnc(Nc3cc(C(F)(F)F)cc(N4CCN(C5CCOC5)CC4)n3)n2)c1 (stereo not drawn) [Compound 564, N-[1-(3,5-difluorophenyl)-1,2,4-triazol-3-yl]-6-(4-tetrahydrofuran-3-ylpiperazin-1-yl)-4-(trifluoromethyl)pyridin-2-amine] | ≤ 1 | ≤ 1 |
| CCOC(=O)C1CCN(c2cc(C)cc(Nc3ncn(-c4cc(F)cc(F)c4)n3)n2)CC1 [Compound 565, ethyl 1-[6-[[1-(3,5-difluorophenyl)-1,2,4-triazol-3-yl]amino]-4-methyl-2-pyridyl]piperidine-4-carboxylate] | ≤ 1 | ≤ 1 |
| Cc1cc(Nc2ncn(-c3cc(F)cc(F)c3)n2)cc(N2CCN3CCOCC3C2)c1 (stereo not drawn) [Compound 566, N-[3-(3,4,6,7,9,9a-hexahydro-1H-pyrazino[2,1-c][1,4]oxazin-8-yl)-5-methyl-phenyl]-1-(3,5-difluorophenyl)-1,2,4-triazol-3-amine] | 100 to 1000 | 10 to 100 |
| Fc1cc(F)cc(-n2cnc(Nc3cc(N4CCN(C5COC5)CC4)cc(C(F)(F)F)n3)n2)c1 [Compound 567, N-[1-(3,5-difluorophenyl)-1,2,4-triazol-3-yl]-4-[4-(oxetan-3-yl)piperazin-1-yl]-6-(trifluoromethyl)pyridin-2-amine] | ≤ 1 | ≤ 1 |
| Cc1cc(Nc2ncn(-c3cc(F)cc(F)c3)n2)nc(N2CCCC(F)C2)c1 (stereo not drawn) [Compound 568, N-[1-(3,5-difluorophenyl)-1,2,4-triazol-3-yl]-6-(3-fluoro-1-piperidyl)-4-methyl-pyridin-2-amine] | 1 to 10 | ≤ 1 |
| Cc1cc(Nc2ncn(-c3cc(F)cc(F)c3)n2)nc(N2CCC(C)(O)CC2)c1 [Compound 569, 1-[6-[[1-(3,5-difluorophenyl)-1,2,4-triazol-3-yl]amino]-4-methyl-2-pyridyl]-4-methyl-piperidin-4-ol] | 1 to 10 | 10 to 100 |
| Cc1cc(Nc2ncn(-c3cc(F)cc(F)c3)n2)nc(N2CC3(CCOC3)C2)c1 [Compound 570, N-[1-(3,5-difluorophenyl)-1,2,4-triazol-3-yl]-4-methyl-6-(7-oxa-2-azaspiro[3.4]octan-2-yl)pyridin-2-amine] | ≤ 1 | 1 to 10 |
| Cc1cc(Nc2ncn(-c3cc(F)cc(F)c3)n2)nc(N2CC3(CCO3)C2)c1 [Compound 571, N-[1-(3,5-difluorophenyl)-1,2,4-triazol-3-yl]-4-methyl-6-(3-oxa-6-azaspiro[3.3]heptan-6-yl)pyridin-2-amine] | ≤ 1 | 1 to 10 |
| Cc1cc(Nc2ncn(-c3cc(F)cc(F)c3)n2)nc(N2CC(C(C)(C)O)C2)c1 [Compound 572, 2-[1-[6-[[1-(3,5-difluorophenyl)-1,2,4-triazol-3-yl]amino]-4-methyl-2-pyridyl]azetidin-3-yl]propan-2-ol] | ≤ 1 | 1 to 10 |
| CC(C)(C)N1CCN(c2cc(Nc3ncn(-c4cc(F)cc(F)c4)n3)cc(N3CCN(C(C)(C)C)CC3)c2)CC1 [Compound 573, N-[3,5-bis(4-tert-butylpiperazin-1-yl)phenyl]-1-(3,5-difluorophenyl)-1,2,4-triazol-3-amine] | 1 to 10 | 1 to 10 |
| Fc1cc(F)cc(-n2cnc(Nc3cc(N4CCN(C5COC5)CC4)cc(N4CCN(C5COC5)CC4)c3)n2)c1 [Compound 574, N-[3,5-bis[4-(oxetan-3-yl)piperazin-1-yl]phenyl]-1-(3,5-difluorophenyl)-1,2,4-triazol-3-amine] | 100 to 1000 | 10 to 100 |
| Cc1cc(Nc2ncn(-c3cccc(C(F)(F)F)c3)n2)cc(OCCN2CCOCC2)c1 [Compound 575, N-[3-methyl-5-(2-morpholinoethoxy)phenyl]-1-[3-(trifluoromethyl)phenyl]-1,2,4-triazol-3-amine] | 10 to 100 | ≤ 1 |
| FC(F)c1cc(Nc2ncn(-c3cnccn3)n2)nc(N2CCN(C3COC3)CC2)c1 [Compound 576, 4-(difluoromethyl)-6-[4-(oxetan-3-yl)piperazin-1-yl]-N-(1-pyrazin-2-yl-1,2,4-triazol-3-yl)pyridin-2-amine] | 10 to 100 | 10 to 100 |
